One may read the EC50 as the concentration at which the effect is half-maximal.

Test [1] has as its target T1, human FPRL1 (Homo sapiens, UniProt P25090).
T1 construct: expressed in transfected cells; host or cells: HEK293 (JCRB9068, NIBIO), transient transfection with pCMV-script vectors using Lipofectamine 2000
T1 sequence (P25090 1-351): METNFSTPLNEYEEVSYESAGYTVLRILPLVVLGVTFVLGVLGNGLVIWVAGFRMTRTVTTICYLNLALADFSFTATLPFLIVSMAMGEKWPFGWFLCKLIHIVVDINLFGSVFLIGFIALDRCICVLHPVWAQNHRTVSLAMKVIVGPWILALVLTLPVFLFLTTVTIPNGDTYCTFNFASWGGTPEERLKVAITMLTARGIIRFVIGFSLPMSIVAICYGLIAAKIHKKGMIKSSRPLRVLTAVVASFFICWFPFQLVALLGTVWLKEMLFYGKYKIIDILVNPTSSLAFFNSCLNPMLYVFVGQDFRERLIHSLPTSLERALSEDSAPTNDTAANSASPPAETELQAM
Nature of the test: Measurement test of agonist activity on human FPRL1 (test of calcium mobilization in cell, HEK293 with human FPRL1 and Gα15 expression vectors). It is filed as cell-based. To be noted: calcium mobilization in HEK293 cells with human FPRL1 and Gα15 expression vectors. In short, it runs like this: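 HEK293 transiently co-transfected with human FPRL1 and Gα15, plated 24 h before assay, loaded with Fluo-4 NW dye plus probenecid. Compounds in eight 10-fold dilutions (DMSO stocks 10^−2 to 10^−9 M, then diluted 100-fold in assay buffer); calcium mobilization read on Flexstation for EC50.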
In general terms: Calcium flux is commonly read through the fluorescence of an indicator in the cells.

Test [2] concerns mouse (BALB/c, male). Description: Effect of lipopolysaccharide induction on neutrophilic infiltration in mouse lung. The settings on record: neutrophil infiltration in BAL fluid, LPS-exposed BALB/c mouse, oral; for inhibition in vivo at 3 mg/kg / inhibition in vivo at 1 mg/kg: 5 h, read-out: SUPPRESSION RATIO. The format is in vivo. How it is done: Effect of Lipopolysaccharide Induction on Neutrophilic Infiltration in Mouse Lung A compound to be tested was orally administrated to a mouse (BALB/c, male), and after 30 minutes, the mouse was placed in a plastic container. Lipopolysaccharide (0.3 mg/mL) dissolved in physiological saline was aerosolized with an ultrasonic wave nebulizer (NE-U17, OMRON Corporation), and exposed to the mouse for 10 minutes. After 5 hours, the anesthetized mouse was sacrificed by exsanguination. A cannula was inserted in the respiratory tract and bronchoalveolar lavage (BAL) with 1 mL of 0.85% NaCl liquid containing 0.4% sodium citrate was carried out. This operation was repeated 3 times, to obtain a BAL fluid. The BAL fluid was centrifuged at 4° C. and ×200 g for 5 minutes, and the pellet was suspended in a physiological saline containing 0.1% BSA. The number of white blood cells was counted using Turks solution with a microscope, and the total white blood cell count was calculated. The white blood cells were fixed on a glass slide using Cytospin 3 (Thermo BioAnalysis Japan K. K.). The cells were stained with Diff-Quik (SYSMEX INTERNATIONAL REAGENTS CO., LTD.), and the number thereof was counted with a microscope, and the neutrophil ratio was calculated. The neutrophil ratio was multiplied by the total white blood cell count to calculate the total neutrophil count. An effect of the compound to be tested represents a percentage (%) of suppression ratio relative to the neutrophil count in a control.

For the molecule `CO/N=C1\NC[C@@H](c2c(F)cc(OC)cc2F)[C@@H]1NC(=O)Nc1ccc(F)cc1` (single isomer, unassigned) [EXAMPLE 32-3, (−)-1-[(3S*,4R*,Z)-4-(2,6-difluoro-4-methoxyphenyl)-2-(methoxyimino)pyrrolidin-3-yl]-3-(4-fluorophenyl)urea], the EC50 in test [1] was 0.05 nM. For the same molecule, the inhibition in vivo at 3 mg/kg in test [2] (dose 3 mg/kg) was determined as 99.1%.
Regarding `COc1cnc([C@@H]2CNC(=O)[C@H]2NC(=O)Nc2ccc(F)cc2)c(F)c1` (single isomer, unassigned) [EXAMPLE 1-18, (−)-1-[(3S*,4R*)-4-(3-fluoro-5-methoxypyridin-2-yl)-2-oxopyrrolidin-3-yl]-3-(4-fluorophenyl)urea], the EC50 in test [1] was determined as 0.36 nM. Besides, in test [2] (dose 1 mg/kg), the inhibition in vivo at 1 mg/kg worked out at 98.3%.
For `COc1cc(F)c([C@@H]2CNC(=O)[C@H]2NC(=O)Nc2ccc(Cl)nc2)c(F)c1` (relative stereo) [Example 1-31, (−)-1-(6-chloropyridin-3-yl)-3-[(3S*,4R*)-4-(2,6-difluoro-4-methoxyphenyl)-2-oxopyrrolidin-3-yl]urea], the EC50 in test [1] was 2.67 nM. Further, the inhibition in vivo at 1 mg/kg in test [2] (dose 1 mg/kg) turned out to be 69.7%.
On to `COc1ccc([C@@H]2CNC(=O)[C@H]2NC(=O)Nc2ccc(Cl)cc2)cc1` (single isomer, unassigned) [EXAMPLE 1-2, (-)-1-(4-chlorophenyl)-3-[(3S*,4R*)-4-(4-methoxyphenyl)-2-oxopyrrolidin-3-yl]urea], for which the EC50 in test [1] turned out to be 0.09 nM. In addition, in test [2] (dose 1 mg/kg), the inhibition in vivo at 1 mg/kg was 99.2%.
Turning to `COc1ccc([C@@H]2CN(C)C(=O)C2NC(=O)Nc2ccc(Cl)cc2)cc1` (mixture of isomers) [Example 1-55, (±)-trans-1-(4-chlorophenyl)-3-[4-(4-methoxyphenyl)-1-methyl-2-oxopyrrolidin-3-yl]urea], the half-maximal effective concentration (EC50) in test [1] was 1.02 nM. Further, in test [2] (dose 3 mg/kg), the inhibition in vivo at 3 mg/kg was 83.7%.
`COc1ccc([C@@H]2CNC(=O)[C@H]2NC(=O)Nc2ccc(F)cc2)c(F)c1` (single isomer, unassigned) [EXAMPLE 1-9, (−)-1-[(3S*,4R*)-4-(2-fluoro-4-methoxyphenyl)-2-oxopyrrolidin-3-yl]-3-(4-fluorophenyl)urea]: the 50% effective concentration (EC50) in test [1] came to 0.45 nM. For the same molecule, the inhibition in vivo at 3 mg/kg in test [2] (dose 3 mg/kg) came to 98.5%.
On to `O=C(Nc1ccc(F)cc1)N[C@@H]1C(=O)NC[C@H]1c1cc2c(cc1F)OCC2` (single isomer, unassigned) [EXAMPLE 1-16, (−)-1-[(3S*,4R*)-4-(6-fluoro-2,3-dihydrobenzofuran-5-yl)-2-oxopyrrolidin-3-yl]-3-(4-fluorophenyl)urea], for which the EC50 in test [1] was 0.24 nM. Also, the inhibition in vivo at 1 mg/kg in test [2] (dose 1 mg/kg) worked out at 95.8%.
As for `COc1ccc([C@@H]2CNC(=O)[C@H]2NC(=O)Nc2ccc(F)cc2)cc1` (single isomer, unassigned) [EXAMPLE 1-1, (−)-1-(4-Fluorophenyl)-3-[(3S*,4R*)-4-(4-methoxyphenyl)-2-oxopyrrolidin-3-yl]urea], the EC50 in test [1] amounted to 0.09 nM. The inhibition in vivo at 1 mg/kg in test [2] (dose 1 mg/kg) stood at 95.1%.
Regarding `COc1cc(F)c([C@@H]2CN(CCO)C(=O)[C@H]2NC(=O)Nc2ccc(F)cc2)c(F)c1` (single isomer, unassigned) [EXAMPLE 26-1, (−)-1-[(3S*,4R*)-4-(2,6-Difluoro-4-methoxyphenyl)-1-(2-hydroxyethyl)-2-oxopyrrolidin-3-yl]-3-(4-fluorophenyl)urea], the EC50 in test [1] turned out to be 0.07 nM. For the same molecule, the inhibition in vivo at 1 mg/kg in test [2] (dose 1 mg/kg) turned out to be 99.6%.
As to `COc1cc(F)c([C@@H]2CNC(=O)[C@H]2NC(=O)Nc2ccc(C#N)cc2)c(F)c1` (single isomer, unassigned) [EXAMPLE 1-23, (−)-1-(4-cyanophenyl)-3-[(3S*,4R*)-4-(2,6-difluoro-4-methoxyphenyl)-2-oxopyrrolidin-3-yl]urea], the EC50 in test [1] turned out to be 0.78 nM. For the same molecule, the inhibition in vivo at 3 mg/kg in test [2] (dose 3 mg/kg) was 98.9%.
For the molecule `N#Cc1ccc(NC(=O)N[C@@H]2C(=O)NC[C@H]2c2cc3c(cc2F)OCC3)cc1` (relative stereo) [Example 1-84, (−)-1-(4-cyanophenyl)-3-[(3S*,4R*)-4-(6-fluoro-2,3-dihydrobenzofuran-5-yl)-2-oxopyrrolidin-3-yl]urea], the EC50 in test [1] amounted to 1.92 nM. In test [2] (dose 1 mg/kg), the “SUPPRESSION RATIO (%)” value was found to be 99.2%.
On to `COc1ccc([C@@H]2CN(CCO)C(=O)[C@H]2NC(=O)Nc2ccc(F)cc2)c(F)c1` (single isomer, unassigned) [EXAMPLE 25-1, (−)-1-[(3S*,4R*)-4-(2-Fluoro-4-methoxyphenyl)-1-(2-hydroxyethyl)-2-oxopyrrolidin-3-yl]-3-(4-fluorophenyl)urea], for which, in test [1], the EC50 is 0.04 nM. The inhibition in vivo at 3 mg/kg in test [2] (dose 3 mg/kg) is 99.1%.
For the molecule `COc1ccc([C@@H]2CN(C)C(=O)[C@H]2NC(=O)Nc2ccc(F)cc2)cc1` (relative stereo) [EXAMPLE 1-7, 1-(4-fluorophenyl)-3-[(3S*,4R*)-4-(4-methoxyphenyl)-1-methyl-2-oxopyrrolidin-3-yl]urea], in test [1], the EC50 stood at 0.22 nM. Besides, the inhibition in vivo at 1 mg/kg in test [2] (dose 1 mg/kg) came out at 96.9%.
Consider `COc1ccc([C@@H]2CNC(=O)C2NC(=O)Nc2ccc(F)cc2)cc1` (mixture of isomers) [Example 1-54, (±)-trans-1-(4-fluorophenyl)-3-[4-(4-methoxyphenyl)-2-oxopyrrolidin-3-yl]urea], for which the EC50 in test [1] amounted to 0.11 nM. Besides, the inhibition in vivo at 3 mg/kg in test [2] (dose 3 mg/kg) was found to be 98.6%.
`COc1cc(F)c([C@@H]2CNC(=O)[C@H]2NC(=O)Nc2ccc(F)c(O)c2)c(F)c1` (relative stereo) [Example 1-71, (−)-1-[(3S*,4R*)-4-(2,6-difluoro-4-methoxyphenyl)-2-oxopyrrolidin-3-yl]-3-(4-fluoro-3-hydroxyphenyl)urea]: the EC50 in test [1] worked out at 0.09 nM. For the same molecule, the “SUPPRESSION RATIO (%)” value in test [2] (dose 3 mg/kg) turned out to be 79.7%.
With `COc1cc(F)c([C@@H]2CNC(=O)[C@H]2NC(=O)Nc2ccc(Cl)c(O)c2)c(F)c1` (relative stereo) [Example 1-72, (−)-1-(4-chloro-3-hydroxyphenyl)-3-[(3S*,4R*)-4-(2,6-difluoro-4-methoxyphenyl)-2-oxopyrrolidin-3-yl]urea], the EC50 in test [1] amounted to 0.05 nM. Further, the “SUPPRESSION RATIO (%)” value in test [2] (dose 3 mg/kg) is 93.3%.
As to `COc1cc(F)c([C@@H]2CN/C(=N\OCCO)[C@H]2NC(=O)Nc2ccc(F)cc2)c(F)c1` (single isomer, unassigned) [EXAMPLE 32-5, (−)-1-{(3S*,4R*,Z)-4-(2,6-difluoro-4-methoxyphenyl)-2-[(2-hydroxyethoxy)imino]pyrrolidin-3-yl}-3-(4-fluorophenyl)urea], the EC50 in test [1] amounted to 0.03 nM. In addition, in test [2] (dose 1 mg/kg), the inhibition in vivo at 1 mg/kg stood at 99.8%.
With `COc1cc(F)c([C@@H]2CNC(=O)[C@H]2NC(=O)Nc2ccc(C)c(O)c2)c(F)c1` (relative stereo) [Example 1-68, (−)-1-[(3S*,4R*)-4-(2,6-difluoro-4-methoxyphenyl)-2-oxopyrrolidin-3-yl]-3-(3-hydroxy-4-methyl)phenyl)urea], the EC50 in test [1] amounted to 0.08 nM. Besides, the “SUPPRESSION RATIO (%)” value in test [2] (dose 3 mg/kg) is reported as 85.6%.
With `COc1cc(F)c([C@@H]2CNC(=O)[C@H]2NC(=O)Nc2ccccc2)c(F)c1` (relative stereo) [Example 7-2, (−)-1-[(3S*,4R*)-4-(2,6-difluoro-4-methoxyphenyl)-2-oxopyrrolidin-3-yl]-3-phenylurea], in test [1], the EC50 was found to be 0.45 nM. The “SUPPRESSION RATIO (%)” value in test [2] (dose 1 mg/kg) is reported as 87.7%.

Values taken from patent US9822069B2, “Urea derivative or pharmacologically acceptable salt thereof” (KYORIN PHARMACEUTICAL CO. LTD., priority 2013, dated 2017).
